These results are taken from PMC6199744, “Development of Chemical Proteomics for the Folateome and Analysis of the Kinetoplastid Folateome” (ACS Infectious Diseases, 2018).

What all share (assay type): binding
Experiment [1] has as its target T1, HeLa cell extract proteins (Homo sapiens, UniProt Q99683).
T1 construct: endogenous in cells; host or cells: HeLa cell extract
T1 sequence (Q99683 1-1374): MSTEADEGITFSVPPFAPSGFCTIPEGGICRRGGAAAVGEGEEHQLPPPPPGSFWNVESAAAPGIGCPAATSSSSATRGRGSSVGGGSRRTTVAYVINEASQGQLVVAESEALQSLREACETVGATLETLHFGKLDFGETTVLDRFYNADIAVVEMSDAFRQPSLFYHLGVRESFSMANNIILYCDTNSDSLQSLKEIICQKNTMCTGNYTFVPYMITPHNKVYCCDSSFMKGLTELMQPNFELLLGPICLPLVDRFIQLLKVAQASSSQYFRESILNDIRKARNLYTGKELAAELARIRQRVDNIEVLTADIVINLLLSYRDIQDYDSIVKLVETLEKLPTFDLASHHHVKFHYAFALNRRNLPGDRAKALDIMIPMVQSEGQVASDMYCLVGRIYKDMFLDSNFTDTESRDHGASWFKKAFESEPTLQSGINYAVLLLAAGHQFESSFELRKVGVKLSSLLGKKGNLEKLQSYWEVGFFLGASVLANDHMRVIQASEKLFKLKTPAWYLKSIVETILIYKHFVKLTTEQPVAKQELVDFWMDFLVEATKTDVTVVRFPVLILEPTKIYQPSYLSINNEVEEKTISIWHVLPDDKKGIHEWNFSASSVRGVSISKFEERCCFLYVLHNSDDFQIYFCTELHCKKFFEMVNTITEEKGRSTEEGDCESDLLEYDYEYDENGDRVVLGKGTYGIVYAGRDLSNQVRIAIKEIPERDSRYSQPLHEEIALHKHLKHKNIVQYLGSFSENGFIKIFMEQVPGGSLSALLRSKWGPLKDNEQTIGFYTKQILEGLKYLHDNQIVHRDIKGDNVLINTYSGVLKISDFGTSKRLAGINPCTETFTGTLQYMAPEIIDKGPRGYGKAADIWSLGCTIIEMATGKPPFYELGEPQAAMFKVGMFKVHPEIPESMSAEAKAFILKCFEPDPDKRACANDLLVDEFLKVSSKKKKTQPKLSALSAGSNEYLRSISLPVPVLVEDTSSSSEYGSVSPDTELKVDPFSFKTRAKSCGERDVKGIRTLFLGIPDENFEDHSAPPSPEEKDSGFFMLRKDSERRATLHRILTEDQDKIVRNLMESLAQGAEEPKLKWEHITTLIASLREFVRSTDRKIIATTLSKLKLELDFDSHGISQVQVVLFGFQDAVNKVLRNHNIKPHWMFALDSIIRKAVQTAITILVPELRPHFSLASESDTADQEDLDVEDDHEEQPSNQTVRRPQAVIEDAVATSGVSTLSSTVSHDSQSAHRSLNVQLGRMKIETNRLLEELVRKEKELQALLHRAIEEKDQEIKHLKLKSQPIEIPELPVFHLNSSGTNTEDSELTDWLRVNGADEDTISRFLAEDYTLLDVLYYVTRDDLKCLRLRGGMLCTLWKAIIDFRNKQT

Experiment [2] has as its target T2, HeLa cell extract proteins (Homo sapiens, UniProt P17812).
T2 construct: endogenous in cells; host or cells: HeLa cell extract
T2 sequence (P17812 1-591): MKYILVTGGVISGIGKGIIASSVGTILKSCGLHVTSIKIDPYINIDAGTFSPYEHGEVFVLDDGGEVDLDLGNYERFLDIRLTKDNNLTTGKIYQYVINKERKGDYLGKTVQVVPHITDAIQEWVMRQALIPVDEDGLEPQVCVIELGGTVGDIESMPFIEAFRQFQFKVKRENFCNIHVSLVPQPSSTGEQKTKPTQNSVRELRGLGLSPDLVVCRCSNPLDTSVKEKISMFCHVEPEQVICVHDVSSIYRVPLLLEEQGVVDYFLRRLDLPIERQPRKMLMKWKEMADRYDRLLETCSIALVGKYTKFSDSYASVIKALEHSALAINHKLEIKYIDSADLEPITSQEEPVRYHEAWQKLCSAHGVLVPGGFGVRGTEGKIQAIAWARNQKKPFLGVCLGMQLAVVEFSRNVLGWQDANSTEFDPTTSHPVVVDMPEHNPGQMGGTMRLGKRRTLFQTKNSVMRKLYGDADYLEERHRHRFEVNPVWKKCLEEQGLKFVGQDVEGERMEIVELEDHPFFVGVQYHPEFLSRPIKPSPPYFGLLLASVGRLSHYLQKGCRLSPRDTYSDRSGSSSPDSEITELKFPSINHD

In experiment [3] the target is T3, HeLa cell extract proteins (Homo sapiens, UniProt P06703).
T3 construct: endogenous in cells; host or cells: HeLa cell extract

Experiment [4] deals with T4, HeLa cell extract proteins (Homo sapiens, UniProt P42704).
T4 construct: endogenous in cells; host or cells: HeLa cell extract

Experiment [5] addresses T5, HeLa cell extract proteins (Homo sapiens, UniProt Q6UXN9).
T5 construct: endogenous in cells; host or cells: HeLa cell extract

[6] abbreviates: HeLa, protein MAP3K5 (MITOGEN-ACTIVATED PROTEIN KINASE KINASE KINASE 5).

Read-outs that look alike come from different tables or passages of the source.

T5 sequence (Q6UXN9 whole entry): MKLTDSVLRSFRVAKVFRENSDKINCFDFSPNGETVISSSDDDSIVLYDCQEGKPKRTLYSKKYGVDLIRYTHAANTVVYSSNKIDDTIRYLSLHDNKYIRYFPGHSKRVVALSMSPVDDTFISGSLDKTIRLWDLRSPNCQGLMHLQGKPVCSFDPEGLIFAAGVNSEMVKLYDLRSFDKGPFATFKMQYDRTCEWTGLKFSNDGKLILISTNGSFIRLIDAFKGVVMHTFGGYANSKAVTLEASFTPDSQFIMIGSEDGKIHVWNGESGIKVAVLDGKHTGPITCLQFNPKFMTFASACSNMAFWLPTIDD

Turning to `Nc1nc2cccc(-c3ccccc3)c2n1Cc1ccc(Cl)c(Cl)c1` [compound 3], the “fold changes relative to vehicle control” value in experiment [1] (HeLa, protein MAP3K5) worked out at 1.1; in experiment [2] (HeLa, protein CTPS) it was 0.95; in experiment [3] (protein S100A6, HeLa), 0.95; in experiment [4] (protein LRPPRC, HeLa), 0.74; in experiment [5] (captured protein WDR82, HeLa), 0.9.

As for `NCCOCCOCC(=O)Nc1nc2ncc(CNc3ccc(C(=O)NC(CCC(=O)O)C(=O)O)cc3)nc2c(=O)[nH]1` (centres unmarked) [compound 6], the “fold changes relative to vehicle control” value is recorded as 1.12 in experiment [1] (setting [6]); 0.95 in experiment [2] (HeLa, protein CTPS); 1.94 in experiment [3] (HeLa, protein S100A6); 1.22 in experiment [4] (HeLa, protein LRPPRC); 0.89 in experiment [5] (HeLa, captured protein WDR82).

Take `Nc1nc2[nH]cc(CCc3ccc(C(=O)N[C@@H](CCC(=O)O)C(=O)O)cc3)c2c(=O)[nH]1` [PTX, pemetrexed]: the “fold changes relative to vehicle control” value in experiment [1] was determined as 1.18; in experiment [2], 0.85; in experiment [3] it was 1.46; in experiment [4] it was 1.15; in experiment [5], 0.72.

For the molecule `Nc1nc2c(c(=O)[nH]1)N(C=O)C(CNc1ccc(C(=O)N[C@@H](CCC(=O)O)C(=O)O)cc1)CN2` (some centres unmarked) [LEU, leucovorin], the “fold changes relative to vehicle control” value in experiment [1] (setting [6]) was 1.13; in experiment [2] (HeLa, protein CTPS) it was 0.93; in experiment [3] (HeLa, protein S100A6), 1.3; in experiment [4] (HeLa, protein LRPPRC) it was 0.92; in experiment [5] (HeLa, captured protein WDR82) it was 0.8.

For the molecule `CCCCCCOc1ccc(Cc2cnc(N)nc2N)cc1` [compound 1], the “fold changes relative to vehicle control” value came out at 1.03 in experiment [1] (HeLa, protein MAP3K5); 0.99 in experiment [2] (HeLa, protein CTPS); 1.13 in experiment [3] (protein S100A6, HeLa); 0.92 in experiment [4] (protein LRPPRC, HeLa); 0.75 in experiment [5] (captured protein WDR82, HeLa).

For `NCCCNc1ccc(C(=O)NC(CCC(=O)O)C(=O)O)cc1` (centres unmarked) [compound 7], the “fold changes relative to vehicle control” value turned out to be 1.09 in experiment [1] (setting [6]); 0.98 in experiment [2] (HeLa, protein CTPS); 1.26 in experiment [3] (HeLa, protein S100A6); 1.21 in experiment [4] (HeLa, protein LRPPRC); 0.97 in experiment [5] (HeLa, captured protein WDR82).

In the case of `CCCCCCOc1cccc(Cc2cnc(N)nc2N)c1` [compound 2], the “fold changes relative to vehicle control” value in experiment [1] (HeLa, protein MAP3K5) was 1.14; in experiment [2] (HeLa, protein CTPS), 1.09; in experiment [3] (protein S100A6, HeLa) it was 1.89; in experiment [4] (protein LRPPRC, HeLa), 1.33; in experiment [5] (captured protein WDR82, HeLa), 1.01.
